Entries after “also recorded” stand apart in the source; their conditions may differ.
Experiments:
NOD mice [1] = assay: Subcutaneous immunization in IFA, development of diabetes in NOD mice; type: in vivo, mouse; conditions: for Protective effect against diabetes (in words): subcutaneous immunization in IFA; for IDD rate (frequency of diabetes): subcutaneous immunization in IFA from 4 weeks of age, FIG. 1
Excerpt: NOD/Uf mice (Winter [1990] Diabetes 39:975-982) were bred and maintained in the temperature and light controlled facility of the Department of Pathology at the University of Florida. After weaning at 3-4 weeks of age, littermates were housed in groups of no more than 6 per cage. A soy and […]-based chow (Harlan, Madison, Wis.) and water were available ad libitum. Typical diabetes rates in the NOD/Uf colony at 40 weeks of age are near 90% in females and 30% in males. Littermates were divided into 3 groups. […] Complete Freund's adjuvant was avoided because of its known protective effect in NOD mice (Qin et al. [1993] J. Immunol. 150:2072-2080). […] Treatments started at 4 weeks of age and subsequent immunizations were administered at ages 12, 16, and 22 weeks. […] In addition, 2 new treatments were assessed. […] As in the first study, immunizations were given in IFA commencing at 4 weeks of age, but subsequent injections were given at 8 week intervals. In a third NOD mouse experiment, controlled by 18, 0.9% saline+IFA-treated littermates (10 female and 8 male), 18 mice received 250 μg BSA (Sigma) in IFA (10 female and 8 male). A third group of 21 littermates was treated with 100 μg of the 17 amino acid component peptide of BSA called ABBOS in IFA (11 female and 10 male). This peptide has been proposed as an environmental molecular mimic of an endogenous islet protein. Venous blood samples, obtained from the tail vein or retro-orbital sinus were tested serially for glucose and IAA. Blood glucose was determined using a Chemstrip bG (Boehringer Mannheim) read visually as verified by a reflectance meter. Diabetes was diagnosed when the whole blood glucose level was greater than 240 mg/dl (13.3 mmol/L). A liquid phase competitive radiobinding assay using 1:3 diluted mouse sera was used to determine IAA […] al. [1987] Diabetes 36:1286-1291). Normal murine levels, established from a survey of 48 mice from six different strains that were not susceptible to spontaneous diabetes were considered to be below 180 nU/ml (3 standard deviations above mean). The method of Kaplan and Meier (Kaplan and Meier [1958] J. Am. Stat. Assoc. 53:457-481) was used to construct life tables and the logrank Chi-square statistic was used to compare them (Mantel, N. (1966) Cancer Chemother. Rep. 50:163-170). A Student t-test or one-way ANOVA was used when appropriate to compare means. Fisher's exact test was applied to compare frequencies in the adoptive transfer studies.

[2] = system: irradiated NOD recipients; assay: Adoptive co-transfer of splenocytes from immunized and acutely diabetic NOD mice to irradiated NOD recipients; type: in vivo, mouse; conditions: for Transfer of protection by splenocytes of immunized mice (in words): irradiated NOD recipients, adoptive co-transfer
Excerpt: At age 10 weeks, splenocyte pools were obtained from these mice, each pool comprising cells from 3 similarly treated animals. These "modulator" splenocytes were mixed with an equal number of pooled splenocytes that had been harvested from 6 untreated, acutely diabetic NOD mice. Six hours after a 700 Rad dose of γ-irradiation, 10 previously untreated, non-diabetic, 10 week old male NOD mice received an intravenous infusion containing a total of 40×10^6 cells from one of the mixtures, i.e. 3 diluent-, 3 A chain-, and 4 B chain-treated animals.
(§1) Venous blood samples, obtained from the tail vein or retro-orbital sinus were tested serially for glucose and IAA. Blood glucose was determined using a Chemstrip bG (Boehringer Mannheim) read visually as verified by a reflectance meter. Diabetes was diagnosed when the whole blood glucose level was greater than 240 mg/dl (13.3 mmol/L). A liquid phase competitive radiobinding assay using 1:3 diluted mouse sera was used to determine IAA titer (Vardi et al. [1987] Diabetes 36:1286-1291). Normal murine levels, established from a survey of 48 mice from six different strains that were not susceptible to spontaneous diabetes were considered to be below 180 nU/ml (3 standard deviations above mean).
(§2) Non-diabetic mice in the subcutaneous immunization protocol that survived to 40 weeks were sacrificed at that age. Their pancreata were removed, fixed in 10% formalin and stained for light microscopic examination with hematoxylin and eosin. The slides were coded and a consensus insulitis score was determined by 3 examiners before the code was broken. The presence of insulitis was scored using a previously described dual scale that assesses both the severity of immune infiltration and the cytoarchitectural disruption. Finally, the pancreata from the modulator cell donors in the adoptive transfer studies were similarly reviewed at 10 weeks of age. Pancreata from 8 of 10 recipients (only 2 of 4 mice receiving B chain modulator cells were sacrificed) were analyzed 20 days after their adoptive transfer.
The method of Kaplan and Meier (Kaplan and Meier [1958] J. Am. Stat. Assoc. 53:457-481) was used to construct life tables and the logrank Chi-square statistic was used to compare them (Mantel, N. (1966) Cancer Chemother. Rep. 50:163-170). A Student t-test or one-way ANOVA was used when appropriate to compare means. Fisher's exact test was applied to compare frequencies in the adoptive transfer studies. P-values are 2-sided.

insulin antibodies = assay: Insulin antibodies (IAA) in serum of immunized NOD mice, competitive radiobinding assay; type: in vivo, mouse; conditions: NOD mice immunized subcutaneously in IFA
Protocol: Littermates were divided into 3 groups. […] Complete Freund's adjuvant was avoided because of its known protective effect in NOD mice (Qin et al. [1993] J. Immunol. 150:2072-2080). […] Treatments started at 4 weeks of age and subsequent immunizations were administered at ages 12, 16, and 22 weeks. […] In addition, 2 new treatments were assessed. […] As in the first study, immunizations were given in IFA commencing at 4 weeks of age, but subsequent injections were given at 8 week intervals. In a third NOD mouse experiment, controlled by 18, 0.9% saline+IFA-treated littermates (10 female and 8 male), 18 mice received 250 μg BSA (Sigma) in IFA (10 female and 8 male). A third group of 21 littermates was treated with 100 μg of the 17 amino acid component peptide of BSA called ABBOS in IFA (11 female and 10 male).
as §1

NOD mice [3] = assay: Insulitis score / pancreatic histology of immunized NOD mice; type: in vivo, mouse; conditions: NOD mice immunized subcutaneously in IFA; non-diabetic survivors at 40 weeks
Protocol: as §2

NOD mice [4] = conditions: cited from earlier work
[5] = irradiated male NOD recipients of splenocytes from treated donors plus diabetic donors, diabetic/total

Substance	Protective effect against diabetes (in words) (NOD mice [1])	IDD rate (frequency of diabetes) (NOD mice [1])	Number of Diabetic Mice, Day 10 [2, 5]	Number of Diabetic Mice, Day 20 [2, 5]	Insulin antibody level / insulin binding activity in serum (in words) (insulin antibodies)	Insulitis / pancreatic histology (in words) (NOD mice [3])	also measured
A chain: recombinant human A chain insulin, given in IFA	had no protective effects	53%	0/3	3/3	high insulin binding activity in serum		Protective effect against diabetes (in words) (NOD mice [1]; listed as A chain insulin): did not however alter the course of IDD; Insulin antibody level / insulin binding activity in serum (in words) (insulin antibodies; listed as A): stimulated high levels of insulin antibodies
bovine serum albumin [BSA, reference compound]	had no protective effects						
B chain: recombinant human B chain insulin, given in IFA	resulted in protection from diabetes; also recorded: protection conferred by subcutaneous insulin immunization was duplicated; also recorded: all of the protection was localized to the B chain	16%	0/4	0/4	stimulated high levels of insulin antibodies; also recorded: high insulin binding activity in serum	neither insulin nor B chain immunizations diminished insulitis	Protective effect against diabetes (in words) (NOD mice [1]; listed as B chain of insulin): reproduced the protective effect of insulin; also recorded: excellent protection against IDD; Protective effect against diabetes (in words) (NOD mice [1]; listed as insulin B chain): protection equal or superior to that conferred by intact insulin; Time for which diabetes was prevented after co-transfer ([2]; co-transfer of splenocytes from treated and acutely diabetic mice, p=0.03): at least 75 days; Transfer of protection by splenocytes of immunized mice (in words) [2]: able to confer the protective effect on irradiated NOD recipients; Transfer of protection by splenocytes of immunized mice (in words) ([2]; listed as B chain of insulin): able to protect irradiated, recipient mice; Number of Diabetic Mice, Day 75 [2, 5]: 0/2
glutamic acid decarboxylase [human GAD65]	onset of diabetes has been delayed						
insulin: purified porcine NPH insulin (first study) or recombinant human NPH insulin (second study, FIG. 1), given subcutaneously in incomplete Freund's adjuvant [reference compound]	significantly reduced the incidence of diabetes; also recorded: strong protection for diabetes was achieved; also recorded: significantly reduce the incidence of IDD; also recorded: excellent protection against IDD	under 13%				incidence and severity of insulitis were little affected, or actually increased; also recorded: not significantly reduced; also recorded: neither insulin nor B chain immunizations diminished insulitis	Protection from hyperglycemia and insulitis (in words) (NOD mice [4]; extended prophylactic course of daily subcutaneous injections, NOD mice (Atkinson et al. 1990)): protected NOD mice from both hyperglycemia and islet infiltration by mononuclear leukocytes (insulitis); Response to oral insulin (in words) (NOD mice [4]; oral, NOD mice (Zhang et al. 1991)): beneficial response

Reference: patent publication US5891435A, “Methods and compositions for delaying or preventing the onset of autoimmune disease” (Research Corporation Technologies, Inc., priority 1993, dated 1999)
